Experiment: Excipient compatibility: accelerated stability of Compound A tablets (degradation by chromatography)
Assay type: physicochemical
Conditions: stored at 50/75 for 45 days
Protocol: Excipient compatibility experiments were designed as linear D-optimal designs with qualitative factors of two or more levels. The formulations used in these experiments can be directly compressed into tablets. For dry processing, three factors were evaluated, namely binary filler combination, choice of disintegrant and choice of lubricant. In the experimental design shown below (see Table 3) the effect of an HPMC-based film coat as well as the addition of colloidal silicon dioxide was evaluated using repeat corners.
Pure drug substance was included as a reference in all conditions.
This is shown in FIG. 2, where tablets stored at 50/75 for 45 days are compared with neat drug substance stored in identical conditions as well as a freshly prepared standard solution from the same drug substance batch. The chromatograms are stacked in order of degradation (and slightly shifted for clarity).
However, the general trends from the other conditions could still be seen. […] Based on this, 70/XX data was omitted from the shelf life prediction model.
Five different peaks were monitored at five different conditions. However, as discussed above, the 70/XX condition was excluded based on a probable conversion to Form B. Overall, Compound A in tablets containing glyceryl behenate appears to degrade to a slightly lesser degree than magnesium stearate.

Cn1c(=O)oc2ccc(-c3ccc(C[C@@H](C#N)NC(=O)[C@@H]4CNCCCO4)cc3)cc21 [Compound A, (2S)-N-{(1S)-1-cyano-2-[4-(3-methyl-2-oxo-2,3-dihydro-1,3-benzoxazol-5-yl)phenyl]ethyl}-1,4-oxazepane-2-carboxamide]
Degradation (overlaid chromatograms, FIG. 2): almost no difference

From US12201638B2, “Pharmaceutical compositions comprising (2S)-n-{(1S)-1-cyano-2-[4-(3-methyl-2-oxo-2,3-dihydro-1,3-benzoxazol-5-yl)phenyl]ethyl}-1,4-oxazepane-2-carboxamide” (ASTRAZENECA AB, priority 2018, dated 2025)
